What was measured:
Type in all cases: in vivo
[1] = system: maize (Marista 11f); assay: Post-emergent test on maize (safener action); settings: post-emergent (GS 11), evaluated after 28 days
Method: The test plants are sown in containers under glasshouse conditions. A standard earth is used as the culture substrate. In a maize growth stage of one leaf (GS 11), the herbicides are applied both by themselves and in a mixture with safeners to the soil and leaf surface. The application is carried out with an aqueous suspension of the test substances, prepared from a 25% wettable powder (Example F3,b) or a suspension concentrate (Example F8), to achieve a field equivalent of 200 l/ha. The tests are evaluated after 28 days (100%=plants completely dead; 0%=no phytotoxic action on the plants).

[2] = system: wheat; assay: Pre-emergent test on wheat (safener action); settings: after 14 days, average value of two repetitions
Method: The test plants are sown in 48 well plates in a growth chamber. A sterilized standard earth is used as the culture substrate. In a pre-emergent stage, the herbicides are applied both by themselves and in a mixture with safeners to the soil surface. The application is carried out with an aqueous suspension of the test substances, prepared from a 25% wettable powder (Example F3,b), to achieve a field equivalent of 375 l/ha. The tests are evaluated after 14 days (100%=plants completely dead; 0%=no phytotoxic action on the plants).

[3] = system: maize; assay: Pre-emergent test on maize (safener action); settings: evaluated after 14 days
Method: The test plants are sown in seed troughs under greenhouse conditions. A standard earth is used as the culture substrate. In a pre-emergent stage, the herbicides are applied both by themselves and in a mixture with safeners to the soil surface. […] The tests are evaluated after 14 days (100%=plants completely dead; 0%=no phytotoxic action on the plants).

| SMILES | phytotoxic action on the plants (100%=plants completely dead; 0%=no phytotoxic action) ([1]; herbicide alone 37.5 g/ha) | phytotoxic action on the plants (100%=plants completely dead; 0%=no phytotoxic action) ([1]; herbicide alone 75 g/ha) | phytotoxic action on the plants (100%=plants completely dead; 0%=no phytotoxic action) ([1]; herbicide alone 150 g/ha) | phytotoxic action on the plants (100%=plants completely dead; 0%=no phytotoxic action) ([2]; herbicide alone 100 g/ha) | phytotoxic action on the plants (100%=plants completely dead; 0%=no phytotoxic action) ([2]; herbicide alone 200 g/ha) | phytotoxic action on the plants (100%=plants completely dead; 0%=no phytotoxic action) ([3]; herbicide alone 250 g/ha) | phytotoxic action on the plants (100%=plants completely dead; 0%=no phytotoxic action) ([3]; herbicide alone 500 g/ha) | phytotoxic action on the plants (100%=plants completely dead; 0%=no phytotoxic action) ([3]; herbicide alone 1000 g/ha) |
| --- | --- | --- | --- | --- | --- | --- | --- | --- |
| Cn1nc(C(F)(F)F)c(CS(=O)(=O)C2=NOC(C)(C)C2)c1OC(F)F [Comp. 1.27, 3-(5-difluoromethoxy-1-methyl-3-trifluoromethyl-1H-pyrazol-4-ylmethylsulfonyl)-5,5-dimethyl-4,5-dihydroisoxazole] | 0% | 10% | 40% | 25% | 50% | – | – | – |
| CC1(C)CC(S(=O)(=O)Cc2c(F)cccc2F)=NO1 [Comp. 1.41] | – | – | – | – | – | 30% | 70% | 80% |
| Cn1nc(C(F)(F)F)c(C[S+]([O-])C2=NOC(C)(C)C2)c1OC(F)F (stereo not drawn) [Comp. 1.57] | – | – | – | 90% | – | – | – | – |

Reference: patent publication US8404618B2, “Herbicidal composition” (priority 2004, dated 2013)
